Common to all, as to assay: NCI anticancer screen, dose series, 48 h
Experiment [1] concerns MOLT-4 leukemia.
Experiment [2] concerns OVCAR-5 ovarian.
Experiment [3] relates to NCI-H226 lung.
Experiment [4] has as its system SR leukemia.
For experiment [5], the system named is RXF 393 renal.
Experiment [6] has as its system CAKI-1 renal.
For experiment [7], the system named is HCT-116 colon.
Experiment [8] has as its system HCC-2998 colon.
Experiment [9] concerns NCI/ADR-RES ovarian.
In experiment [10] the test system is HL-60(TB) leukemia.

Data on 15 compounds can be found in PubChem BioAssay (NCI).

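Five compound concentrations were applied to cells in 96-well plates for 48 hours; endpoints were derived by simple linear interpolation of the resulting dose-response curve. Here, GI50 denotes the concentration required for 50% inhibition of growth. TGI is the concentration that stops growth completely.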

For `COC(=O)c1cc(-c2ccc(OC)c(OC)c2)[nH]c1N/N=C/c1c(Cl)cccc1Cl`, the GI50 in [1] was 0.68 µM; in experiment [2], 1.91 µM; in experiment [3], 1.9 µM; in [4], 0.394 µM; in experiment [5] it was 0.132 µM; in [6], 0.768 µM. Besides, the GI50 is 0.396 µM in [7], 0.265 µM in experiment [8], 0.557 µM in experiment [9] and 0.25 µM in [10]. In addition, the TGI is greater than 100 µM in experiment [1]; 7.42 µM in experiment [2]; greater than 51.3 µM in experiment [3]; greater than 100 µM in experiment [4]; 0.933 µM in experiment [5]; 7.1 µM in experiment [6]. Also, the TGI in experiment [7] worked out at 2.11 µM; in experiment [8] it was 1.43 µM; in experiment [9], 9.01 µM; in experiment [10] it was 0.531 µM.
In the case of `CCc1c(C)nc2sc3c(N)ncnc3c2c1C`, the GI50 in experiment [1] was greater than 25 µM; in experiment [2] it was greater than 25 µM; in [3], greater than 25 µM; in experiment [4], greater than 25 µM; in experiment [5] it was greater than 25 µM; in experiment [6], greater than 19.6 µM. Besides, the GI50 in experiment [7], in experiment [8], in experiment [9] and in [10] was greater than 25 µM throughout. Also, the TGI in [1], in experiment [2], in experiment [3], in experiment [4], in experiment [5] and in [6] was greater than 25 µM in each case. The TGI in [7], in experiment [8], in [9] and in experiment [10] was greater than 25 µM in each case.
Regarding `COc1cc(C(=O)c2cc(C)c3[nH]c4ccc(O)cc4c3c2C)cc(OC)c1OC`, the GI50 in [1] is 0.0424 µM; in experiment [2], 0.0511 µM; in experiment [3], 0.0943 µM; in [4], less than 0.01 µM; in experiment [5], less than 0.01 µM; in [6] it was less than 0.01 µM. Besides, the GI50 in [7] is less than 0.01 µM; in [8], 0.03 µM; in [9] it was less than 0.01 µM; in experiment [10] it was 0.0246 µM. The TGI was greater than 100 µM in experiment [1]; greater than 100 µM in experiment [2]; greater than 81.3 µM in experiment [3]; greater than 100 µM in experiment [4]; 3.11 µM in [5]; greater than 47.6 µM in experiment [6]. In addition, the TGI in experiment [8] was greater than 37.9 µM; in [10], 0.0797 µM.
As to `Oc1c(-c2cc(C(F)(F)F)[nH]n2)cc(Cl)c(OCc2ccc(Cl)cc2)c1-c1ccc(Cl)c(C(F)(F)F)c1`, the GI50 in [1] is 0.903 µM; in experiment [2], 2.01 µM; in experiment [3], 0.917 µM; in experiment [4] it was 0.256 µM; in [5] it was 0.226 µM; in [6], 0.514 µM. The GI50 in experiment [7] is 0.159 µM; in experiment [8] it was 0.739 µM; in experiment [9], 0.221 µM; in experiment [10] it was 0.677 µM. Besides, the TGI turned out to be 3.2 µM in experiment [1]; 7.91 µM in experiment [2]; 2.68 µM in [3]; 2.99 µM in experiment [4]; 1.67 µM in [5]; 2.92 µM in experiment [6]. In addition, the TGI in experiment [7] amounted to 0.705 µM; in experiment [8], 4.53 µM; in experiment [9], 5.82 µM; in experiment [10] it was 3.12 µM.
On to `Cc1ccncc1C(N)=O`, for which the GI50 in experiment [1], in [2], in [3], in [4], in experiment [5] and in experiment [6] was greater than 100 µM in each case. Further, the GI50 in experiment [7], in experiment [8], in experiment [9] and in experiment [10] was greater than 100 µM each time. Moreover, the TGI in experiment [1], in experiment [2], in [3], in experiment [4], in experiment [5] and in experiment [6] was greater than 100 µM throughout. Besides, the TGI in experiment [7], in experiment [8], in experiment [9] and in experiment [10] was greater than 100 µM in each case.
As to `C[C@@H]1Cc2cc(O)ccc2[C@H]2CC[C@]3(C)/C(=C/COCCN(C)C)CC[C@H]3[C@H]12` (tested in a mixture with another compound), the GI50 in experiment [1] was 0.0833 µM; in [2], 0.251 µM; in [3], 0.744 µM; in [4], 0.212 µM; in experiment [5] it was 0.105 µM; in experiment [6] it was 0.213 µM. Besides, the GI50 in experiment [7] was 0.245 µM; in experiment [8], 0.448 µM; in experiment [9] it was 0.192 µM; in [10] it was 0.244 µM. Also, the TGI in experiment [1] is 0.487 µM; in experiment [2], 0.724 µM; in experiment [3], 1.97 µM; in experiment [4], 0.55 µM; in [5], 0.316 µM; in experiment [6], 0.578 µM. The TGI in experiment [7] worked out at 0.78 µM; in [8], 1.65 µM; in [9], 0.419 µM; in experiment [10] it was 0.628 µM.
For the compound `Oc1cc(-n2cccn2)c(O)cc1-n1cccn1`, the TGI in experiment [1] is 61.8 µM; in [2] it was 83.3 µM; in experiment [3] it was greater than 89 µM; in [4], 73.3 µM; in experiment [5] it was 37.8 µM; in experiment [6] it was 53.8 µM. Besides, the TGI in experiment [7] is greater than 64.1 µM; in experiment [8], greater than 100 µM; in experiment [9], greater than 100 µM; in experiment [10], 15.6 µM.
`CN1CCN(CCCCCN=c2cc3c(=O)n(CCCCCN4CCN(C)CC4)c(=O)c4c(NCCCCCN5CCN(C)CC5)cc5c(O)n(CCCCCN6CCN(C)CC6)c(=O)c2c5c4-3)CC1`: the GI50 in experiment [1] was 4.85 µM; in experiment [2], 2.13 µM; in [3], 3.25 µM; in [4], 4.01 µM; in [5], 24.3 µM; in [6] it was greater than 100 µM. For the same compound, the GI50 is 3.31 µM in [7], 5.79 µM in experiment [8], greater than 100 µM in experiment [9] and 7.16 µM in experiment [10]. The TGI in [1] was greater than 100 µM; in experiment [2] it was 7.79 µM; in experiment [3] it was 21.6 µM; in experiment [4], 25.1 µM; in [5], greater than 100 µM; in [6], greater than 100 µM. Also, the TGI in experiment [7] was 17.3 µM; in [8], 24.4 µM; in [9], greater than 100 µM; in [10], 59 µM.
Take `FC(F)(F)c1cccc(-c2nn3ncccc3c2-c2ccnc(Nc3ccc4c(c3)OCCO4)n2)c1`: the GI50 in [1] is 11.8 µM; in experiment [2] it was greater than 25 µM; in experiment [3], 14.2 µM; in [4], 10.4 µM; in experiment [5], 6.83 µM; in [6], 7.66 µM. Moreover, the GI50 in experiment [7] is 9.75 µM; in [8], 13 µM; in [9], 8.96 µM; in experiment [10], 11.9 µM. Moreover, the TGI in [1], in experiment [2], in [3], in experiment [4], in experiment [5] and in experiment [6] was greater than 25 µM each time. Moreover, the TGI in experiment [7], in experiment [8], in experiment [9] and in experiment [10] was greater than 25 µM throughout.
For the compound `Nc1n[nH]c2ccc([C@@H]3Nc4cc5c(cc4[C@H]4C6CCC(C6)[C@@H]34)C(=O)NC5)cc12` (stereo partly specified), the GI50 is 0.415 µM in [1]; 1.06 µM in experiment [2]; 0.461 µM in experiment [3]; 0.149 µM in [4]; 0.273 µM in [5]; 0.498 µM in [6]. The GI50 in experiment [7] is 0.343 µM; in experiment [8], 0.362 µM; in experiment [9], 2.69 µM; in experiment [10], 0.282 µM. Further, the TGI in experiment [1] was greater than 100 µM; in experiment [2] it was greater than 100 µM; in experiment [3], greater than 20.9 µM; in [4], greater than 100 µM; in experiment [6] it was greater than 100 µM; in experiment [7] it was greater than 100 µM. Moreover, the TGI in experiment [8] is greater than 41.5 µM; in [9], greater than 100 µM.
Take `Nc1nc(N)c(CCCCc2ccccc2)c(N)n1`: the TGI in experiment [1], in experiment [2], in [3], in [4], in experiment [5] and in experiment [6] was greater than 100 µM each time. For the same compound, the TGI in experiment [7], in experiment [8], in experiment [9] and in experiment [10] was greater than 100 µM throughout.
With `O=C1C(OCCOc2ccccc2)=C(OCCOc2ccccc2)C(=O)c2ccccc21`, the GI50 in [1] was greater than 100 µM; in experiment [2], greater than 100 µM; in experiment [3] it was 22.1 µM; in [4], 7.26 µM; in [5], 40.2 µM; in experiment [6] it was 12.5 µM. Also, the GI50 in [7] is 3.13 µM; in experiment [8], 11.6 µM; in [9], 7.64 µM; in experiment [10] it was greater than 100 µM. In addition, the TGI in experiment [1], in [2], in experiment [3], in experiment [4], in experiment [5] and in [6] was greater than 100 µM each time. The TGI in experiment [7], in [8], in experiment [9] and in experiment [10] was greater than 100 µM in each case.
Take `Cc1cc(C)c(C2CNCc3cc4c(cc32)CNCC4c2c(C)cc(C)cc2C)c(C)c1` (stereo unspecified): the GI50 in [1] was 2.95 µg/mL; in experiment [2] it was 8.38 µg/mL; in experiment [3], 13.4 µg/mL; in experiment [4], 0.303 µg/mL; in [5], 2.2 µg/mL; in experiment [6] it was 4.22 µg/mL. Further, the GI50 is 2.38 µg/mL in experiment [7], 1.82 µg/mL in experiment [8], 6.38 µg/mL in experiment [9] and 1.81 µg/mL in experiment [10]. The TGI came out at 8.55 µg/mL in [1]; 20.4 µg/mL in [2]; 26.5 µg/mL in experiment [3]; 1 µg/mL in experiment [4]; 4.45 µg/mL in experiment [5]; 13.6 µg/mL in [6]. Besides, the TGI was 6.14 µg/mL in [7], 3.85 µg/mL in experiment [8], 19.5 µg/mL in experiment [9] and 4.3 µg/mL in experiment [10].
For `O=C(NNS(=O)(=O)c1ccc(Cl)cc1Cl)c1cccnc1Nc1ccc(Cl)cc1`, the GI50 in experiment [1] is 19.6 µM; in experiment [2], 26.2 µM; in experiment [3] it was 23.9 µM; in [4], 14.8 µM; in [5], 16.9 µM; in [6], 19.8 µM. Also, the GI50 in experiment [7] was 15.5 µM; in [8], 13.6 µM; in [9], 23.4 µM; in experiment [10], 23.8 µM. Also, the TGI in [1] is 58.2 µM; in experiment [2], 78.2 µM; in experiment [3], 58.5 µM; in experiment [4], 38.1 µM; in experiment [5], 43.8 µM; in experiment [6], 58.7 µM. Further, the TGI in experiment [7] was found to be 28.8 µM; in experiment [8], 29 µM; in experiment [9], 76.5 µM; in experiment [10], 44.4 µM.
Turning to `CC1c2ccccc2CCN1c1ccc(CO)c(Cl)c1` (stereo unspecified), the GI50 in [1] is 24.6 µM; in [2], 0.0427 µM; in [3], 0.0491 µM; in experiment [4], 28.3 µM; in [5], 1.2 µM; in experiment [6] it was 3.46 µM. In addition, the GI50 was 0.0345 µM in experiment [7], 2.95 µM in [8], 13.1 µM in experiment [9] and 21.3 µM in [10]. The TGI in [1] was 77.7 µM; in experiment [2], 0.187 µM; in [3], 0.228 µM; in experiment [4], greater than 85.9 µM; in experiment [5], 23.8 µM; in experiment [6] it was 50.3 µM. Further, the TGI worked out at 12.6 µM in [7], 17.6 µM in [8], 50.5 µM in [9] and 70.2 µM in [10].
